Laboratory results taken from US20140235542A1, “MODULAR, BIOACTIVE PEPTIDES FOR BINDING NATIVE BONE AND IMPROVING BONE GRAFT OSTEOINDUCTIVITY” (WISCONSIN ALUMNI RESEARCH FOUNDATION, priority 2013, published 2014).
Square brackets hold non-standard residues; d marks the D form. Ends that are not written are not given here. Gla = N[C@@H](CC(C(=O)O)C(=O)O)C(=O)O

What was measured:
[1] = Release kinetics of modular peptides from HA-coated film; conditions: after 5 days, PBS, 37° C.
Protocol: To quantify release kinetics of 5(6) FAM-conjugated modular peptides from HA-coated film, the films were first incubated in solutions containing 250 μM (˜500 μg) of each peptide (eBGu1, eBGu3, eBGa1, or eBGa3) to allow for binding (as described above), then incubated in 500 μl of PBS buffer at 37° C. with constant agitation for 5 days (eBGu1 and eBGu3 peptides) or 10 weeks (eBGa1 and eBGa3 peptides), respectively. Whole buffer solutions were changed at indicated time points and the amount of peptide released from the HA-coated film was determined via fluorescence analysis and comparison with standards containing known amounts of 5(6)-FAM. The fluorescent images of fluorescently-labeled peptides bound to HA-coated films were obtained using an Olympus IX51 fluorescence microscope (Olympus, Center Valley, Pa.).

[2] = Binding of 5(6)-FAM-conjugated modular peptides to HA-coated PLG films; conditions: 500 μg (1 mg/ml) 5(6)-FAM-conjugated peptide in PBS, 4 hr, 37° C., constant agitation
Protocol: Poly (lactide-coglycolide) (PLG) films were prepared via a solvent casting process in which PLG (85:15) pellets were dissolved in chloroform (50 mg/ml), added to a PTFE dish, and dried for 2 days. The films were further dried at 50-55° C. for 4 hr to remove residual solvent and samples were cooled to room temperature. Square films (1 cm^2) were manually cut out of the resulting PLG film sheets. A “bone-like” HA-based material layer was grown on the PLG films using a direct deposition technique by biomimetic mineralization in modified simulated body fluid (mSBF).
To measure the binding efficiency of modular peptides to the HA-coated PLG films and to gain preliminary insight into the properties that influence modular peptide immobilization, 1 cm^2 HA-coated PLG films was first exposed to PBS solutions containing 500 μg (1 mg/ml) of 5(6) FAM-conjugated eBMP-2, eBGu1, eBGu3, eBGa1, or eBGa3 modular peptide solution (See Table 1 for definitions of these abbreviations). The films were incubated in peptide solutions with constant agitation for 4 hr at 37° C., and the amount of free peptide remaining was determined by measuring the fluorescence emission of the solution (excitation: 494 nm; emission 519 nm) using a Synergy HT Multi-Detection Microplate Reader (BioTek, Winooski, Vt.), and comparing this emission to standard samples with known concentrations of 5(6)-FAM. To further characterize surface immobilization of the peptide with the highest binding efficiency—the eBGa3 peptide-1 cm^2 HA-coated films were incubated in various concentrations (50-750 nM) of 5(6)-FAM-conjugated eBGa3 peptide for 4 hr with constant agitation at 37° C. The amount of peptide bound to HA-coated film was again determined by fluorescence analysis, as described above.

[3] = Binding of rhodamine-labeled peptide to cortical bone; parameters: species or system sheep
Protocol: The native bone used were harvested from sheep tibia and bovine sternum. Cortical (compact) bone slices were collected from sheep tibia with periosteum removed, and trabecular (cancellous, spongy) bone cores were drilled out from bovine sternum under sterile conditions.
The peptide binding to native bones was tested in three different experiments. In the first experiment, the cortical bone slices were incubated in modular peptide solution (0.5 mL, PBS) with concentrations of 50, 100, 200 and 300 μg/mL. The incubation was continued in a static condition for a period of 0.5, 1, 2 and 3 hours. For another experiment, the trabecular bone cores were placed in the chamber of bone bioreactor where the peptide solution prepared in DMEM (100 μg/mL, 6.5 mL) was continuously circulated through the chamber for a time period of 2, 4, 6, 8 and 10 hours. In the last experiment, mBMP was bound in a spatially controlled manner by dip-coating, spotting or writing with mBMP solution on native bone tissues. Following each experiment, the bones were rinsed with PBS to remove unbound peptide and their fluorescence images were captured using a Typhoon fluorescence scanner (GE healthcare) or a Nikon Eclipse Ti inverted microscope. To quantify the fluorescence intensity, the images were converted into 8-bit using ImageJ to present the intensity level of each pixel in the range of 0 to 255. The mean pixel intensity of a selected region of interest was considered to be proportional to the amount of peptide bound.
To examine mBMP binding to cortical bone without periosteum (ca. 4 mm×7 mm×1.5 mm) from the shaft of sheep tibia, the bone tissue was incubated in mBMP solution prepared in phosphate buffered saline (PBS). The binding of mBMP was concentration-dependent for each incubation time tested (FIGS. 12 and 13A). The quantity of mBMP binding was proportional to the solution concentration, which was clearly observed through all concentrations at 0.5 hour. However, this dependence was not apparent at higher concentrations at later time points. […] The insignificant dependence on the incubation time is likely attributed to the rapid binding of mBMP to native bone tissue.

[4] = Binding of VEGF peptides to HA particles / HA slab
Protocol: The binding behavior of the peptides (both modular peptide, VEGF-OCN (SEQ ID NO:18), and VEGF-mimic) were analyzed and compared as described above. The amount of bound VEGF-OCN on the HA particle increased with peptide concentration and reached saturation at 15 μM (FIG. 8A).

[5] = test system: mouse yolk sac endothelial C166-GFP cells; assay: C166-GFP cell proliferation on peptide-treated HA slabs (CYQUANT); format: cell-based; conditions: 2-day culture on HA slab incubated in peptide solution
Protocol: Cells were again seeded at a density of 2×10^4 cells/cm^2 (4×10^4 cells per well) in 24-well plate. Prior to seeding, HA slabs (1 cm×1 cm) were incubated in peptide solution (PBS) for four hours at 37° C. and copiously rinsed with deionized water, and then placed in a well of the 24-well plate. After 1-day culture, cells were treated with 2 μM calcein AM solution, and imaged using Olympus IX-51 microscope.
Additionally, a cell number count of the C166-GFP cells as cultured in the presence of VEGF-OCN or VEGF mimic was determined For the cell count, cells were seeded at a density of 5×10^3 cells/cm^2 (1×10^4 cells per well) in a 24-well plate. After 2-day culture, cells were detached from the HA slab and cell number was assessed using CYQUANT assay.

binding efficiency on the HA-coated PLG films [2] [%]	Substance	peptide released from HA-coated films [1] [%]	also measured
10.3±4.7	KIPKASSVPTELSAIATLYLAAAAEPRRAVAAL [eBGu1, modular BMP-2/OCN peptide with one Glu residue]	98.89±18.84	–
7.6±7.8	KIPKASSVPTELSAISTLYLAAAAEPRREVAEL [eBGu3, modular BMP-2/OCN peptide with Glu in place of Gla at three positions]	93.33±17.24	dependence of binding to cortical bone on concentration and incubation time ([3]; 50-300 μg/mL in PBS, 0.5-3 hours): independent of incubation time and peptide concentration; amount of peptide bound to cortical bone ([3]; each experimental condition tested): significantly less than that of mBMP
–	KLTWQELYQLKYKGI [VEGF-mimic, VEGF helical region mimic first synthesized by Pedon, et al, reference compound]	–	amount of peptide bound to HA slab ([4]; HA slab, qualitative comparison): much less than that of VEGF-OCN
–	KLTWQELYQLKYKGI-GGGAAAA-γEPRRγEVAγEL (KLTWQELYQLKYKGIGGGAAAA[Gla]PRR[Gla]VA[Gla]L) [VEGF-OCN]	–	effect of peptide-treated HA slab on cell number [5]: promoted cell proliferation; peptide concentration at which bound amount on HA particle reached saturation ([4]; HA particles): 15 µM

Substance	binding efficiency on the HA-coated PLG films [2] [%]	peptide released from HA-coated films [1] [%]	also measured
KIPKASSVPTELSAISTLYLAAAAγEPRRAVAAL (KIPKASSVPTELSAISTLYLAAAA[Gla]PRRAVAAL-NH2; N-terminus assumed; SMILES CC[C@H](C)[C@H](NC(=O)[C@H](C)NC(=O)[C@H](CO)NC(=O)[C@H](CC(C)C)NC(=O)[C@H](CCC(=O)O)NC(=O)[C@@H](NC(=O)[C@@H]1CCCN1C(=O)[C@@H](NC(=O)[C@H](CO)NC(=O)[C@H](CO)NC(=O)[C@H](C)NC(=O)[C@H](CCCCN)NC(=O)[C@@H]1CCCN1C(=O)[C@@H](NC(=O)[C@@H](N)CCCCN)[C@@H](C)CC)C(C)C)[C@@H](C)O)C(=O)N[C@@H](CO)C(=O)N[C@H](C(=O)N[C@@H](CC(C)C)C(=O)N[C@@H](Cc1ccc(O)cc1)C(=O)N[C@@H](CC(C)C)C(=O)N[C@@H](C)C(=O)N[C@@H](C)C(=O)N[C@@H](C)C(=O)N[C@@H](C)C(=O)N[C@@H](CC(C(=O)O)C(=O)O)C(=O)N1CCC[C@H]1C(=O)N[C@@H](CCCNC(=N)N)C(=O)N[C@@H](CCCNC(=N)N)C(=O)N[C@@H](C)C(=O)N[C@H](C(=O)N[C@@H](C)C(=O)N[C@@H](C)C(=O)N[C@@H](CC(C)C)C(N)=O)C(C)C)[C@@H](C)O) [eBGa1, modular BMP-2/OCN peptide with one Gla residue]	29.9±2	–	–
